The text below walks through data of US5830994A, “Peptide derivatives of alpha-MSH and their application” (Institut Europeen De Biologie Cellulaire, priority 1993, dated 1998).

In this experiment the test system is Interleukin-1α. Briefly: Inhibition of the synthesis of Interleukin 1 (IL1α) induced by LPS in mice, serum ELISA. The class given is in vivo, BALB/C mice. The method, then:
Study of the immunosuppressive activity of the derivative compound 4 on the inhibition of the synthesis of Interleukin 1 "IL1" in mice.
The secretion of IL1 is induced by the parenteral administration of lipopolysaccharides "LPS" to BALB/C mice.
Compound 4 (P-IV) is dissolved in physiological saline. It is assayed quantitatively by spectrophotometry at 280 nm (assay of Tryptophan) which allows an accurate assay of "P-IV" in the solutions which are stored at -25° C.
Extracts of Escherichia Coli serotype 0127 - B8 -"Ref. SIGMA - L3137" are used at the concentration of 6 mg/ml in physiological saline.
BALB/C mice--females--5 weeks old, obtained from IFFA - CREDO subjected to a photoperiod of 12 hours of light per 24 hours water and feed ad libitum
the other based on a single treatment, consequently much more rapid, will serve for the control of the PIV activity ("DAYNES" technique).
The animals in the control batches receive an injection of 0.2 ml of physiological saline subcutaneously, the animals in the PIV batches receive an injection of the product at various dosages subcutaneously. This treatment takes place for 5 days.
Forty-eight hours after the treatment with PIV, a sublethal dose of LPS (1.2 mg in 0.2 ml of physiological saline) is injected intraperitoneally into each animal in the PIV batches and in the positive control batch.
One hundred and eighty minutes later, all the mice were punctured through the retroorbital sinuses on dry tubes. As soon as the blood coagulates, the clot is detached. The blood is centrifuged for 10 minutes at 1800 g at a temperature of 10° C.
40 μg of PIV in 0.2 ml of physiological saline--that is to say 200 μg/ml
25 Ag of PIV in 0.2 ml of physiological saline--that is to say 125 μg/ml
10 μg of PIV in 0.2 ml of physiological saline--that is to say 50 μg/ml
The animals in the control batches receive an injection of 0.2 ml of physiological saline intravenously.
The animals in the PIV batches receive an injection of the product at various dosages intravenously. (Caudal vein)
Immediately afterwards, a sublethal dose of LPS (1.2 mg years [sic] 0.2 ml of physiological saline) is injected intraperitoneally into each animal in the PIV batches and into the positive control batches.
One hundred and eighty minutes later, all the mice are punctured through the retroorbital sinuses on dry tubes. As soon as the blood coagulates, the clot is detached. The blood is centrifuged for 10 minutes at 1800 g at a temperature of 10° C. The sera once collected are frozen at -25° C.
The Interleukin-1α contained in these sera is assayed 24 hours after the sampling with the murine IL1α ELISA assay Kit (ref. 1900 GENZYME)
Rapid description of the Kit: the method used for this assay is of the sandwich type.
A first anti-murine IL1α monoclonal antibody is used
The samples are then deposited, then a second biotinylated anti-IL1α antibody is caused to react.
The coloured reaction uses tetramethylbenzidine (TMB)
The reading is made at 450 nm on a MULTISKAN MCC 340 MKII (TITERTEK) plate reader.

On to “[(DL) Lip] His - D.homoPhe - Arg - Trp - NH2 [PIV]”, for which the “mean decreases in IL1α” value is recorded as 50% (50 μg/ml, five studies); 50% (125 μg/ml, five studies); 60% (200 μg/ml, five studies); about 55% (all dosages, all the five studies). In addition, the “decrease in the synthesis of Interleukin-1α relative to the control” value (with the two methodologies used (SHEEHAN and DAYNES)) is “at least 50%”.
